Measured values from patent US9315522B2, “Antibacterial compounds” (JANSSEN SCIENCES IRELAND UC, priority 2012, dated 2016).
Converted amounts (≈) assume the structure as drawn.

Target: T1, S. aureus ATCC 29213 FabI (Staphylococcus aureus, UniProt Q6GI75)
T1 sequence (Q6GI75 1-256): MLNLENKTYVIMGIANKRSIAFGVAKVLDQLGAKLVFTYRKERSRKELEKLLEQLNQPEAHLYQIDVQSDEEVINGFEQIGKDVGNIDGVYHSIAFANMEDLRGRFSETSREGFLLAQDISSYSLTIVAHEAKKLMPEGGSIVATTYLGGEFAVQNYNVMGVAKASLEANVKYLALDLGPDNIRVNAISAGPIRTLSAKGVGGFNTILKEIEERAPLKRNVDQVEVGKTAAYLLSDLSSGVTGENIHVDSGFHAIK
Assay: Staphylococcus aureus FabI enzyme inhibition assay
Format: biochemical
Conditions: read-out: FabI (300.235) IC50 (converted)
Outline: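 S. aureus ATCC 29213 FabI (50 μg/ml) with 250 μM crotonoyl-CoA and 625 μM NADH in 100 mM NaADA pH 6.5, inhibitor 50–0.39 μM, 30 min at room temperature. Stopped by Tris pH 9.0 shift; NADH at 340 nm versus no-compound and no-enzyme controls; IC50 in μg/ml.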

| Structure (SMILES) | IC50 [nM] |
| --- | --- |
| O=C1Nc2ncc(/C=C/C(=O)N3CC4C=C(c5ccccc5)CC4C3)cc2CN2CCNCC12 (centres unmarked) [compound 79] | 1320 |
| O=C1Nc2ncc(/C=C/C(=O)N3CC4C=C(c5ccncc5)CC4C3)cc2CN2CCOCC12 (centres unmarked) [compound 80] | 743 |
| CN1CCN2C(=O)c3cc(/C=C/C(=O)N4CC5C=C(c6ccccc6)CC5C4)cnc3NC(=O)C2C1 (centres unmarked) [compound 82] | 993 |
| CC(=O)N1CCN2C(=O)c3cc(/C=C/C(=O)N4CC5C=C(c6ccccc6)CC5C4)cnc3NC(=O)C2C1 (centres unmarked) [compound 83] | 1230 |
| Cn1nccc1C1=CC2CN(C(=O)/C=C/c3cnc4c(c3)CN3CCOCC3C(=O)N4)CC2C1 (centres unmarked) [compound 85] | 955 |
| O=C1CC2CCCCN2Cc2cc(/C=C/C(=O)N3C[C@@H]4CC(c5ccccc5)=C[C@@H]4C3)cnc2N1 (some centres unmarked) [compound 90] | 832 |

Test system: Staphylococcus aureus ATCC 29213
Assay: Antibacterial susceptibility testing, IC90 determination (STA)
Format: cell-based
Conditions: Staphylococcus aureus, ATCC29213, Staphylococcus aureus ATCC 29213, broth microdilution, resazurin; read-out: STA (361.159) IC90
Outline: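 S. aureus ATCC 29213 tested by broth microdilution in Mueller-Hinton broth, 5×10^5 CFU/ml, two-fold compound dilutions typically 63 to 0.49 μM, 1.25% DMSO, 16-20 h at 35° C. Growth read fluorometrically with resazurin (ex 540/em 590 nm); IC90 in μg/ml is 90% growth-inhibitory concentration.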

| Structure (SMILES) | IC90 [µg/mL] |
| --- | --- |
| O=C(Nc1ccc(/C=C/C(=O)N2CC3C=C(c4ccncc4)CC3C2)cn1)c1cccnc1 (centres unmarked) [compound 9] | 0.34 (≈ 0.777 µM) |
| O=C1Nc2ncc(/C=C/C(=O)N3CC4C=C(c5ccccc5)CC4C3)cc2CN2CCNCC12 (centres unmarked) [compound 79] | 0.36 (≈ 0.79 µM) |
| O=C1Nc2ncc(/C=C/C(=O)N3CC4C=C(c5ccncc5)CC4C3)cc2CN2CCOCC12 (centres unmarked) [compound 80] | 0.42 (≈ 0.918 µM) |
| CN1CCN2C(=O)c3cc(/C=C/C(=O)N4CC5C=C(c6ccccc6)CC5C4)cnc3NC(=O)C2C1 (centres unmarked) [compound 82] | 0.45 (≈ 0.931 µM) |
| CC(=O)N1CCN2C(=O)c3cc(/C=C/C(=O)N4CC5C=C(c6ccccc6)CC5C4)cnc3NC(=O)C2C1 (centres unmarked) [compound 83] | 0.48 (≈ 0.938 µM) |
| Cn1nccc1C1=CC2CN(C(=O)/C=C/c3cnc4c(c3)CN3CCOCC3C(=O)N4)CC2C1 (centres unmarked) [compound 85] | 1.67 (≈ 3.63 µM) |
| O=C1CC2CCCCN2Cc2cc(/C=C/C(=O)N3C[C@@H]4CC(c5ccccc5)=C[C@@H]4C3)cnc2N1 (some centres unmarked) [compound 90] | < 0.21 |

Test system: S. aureus
Assay: Antibacterial susceptibility testing, IC90 determination with 10% human serum (STA + 10% HS)
Format: cell-based, Staphylococcus aureus
Conditions: Staphylococcus aureus, human serum at final concentration of 10%, read-out: STA + 10% HS (361.169) IC90
Outline: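 Broth microdilution in Mueller-Hinton broth with 10% human serum, 5×10^5 CFU/ml S. aureus, two-fold compound dilutions (typically 63 to 0.49 μM), 1.25% DMSO, 16-20 h at 35° C. Growth read fluorometrically with resazurin (ex 540/em 590 nm); IC90 in μg/ml is the 90% growth-inhibitory concentration.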

| Structure (SMILES) | IC90 [µg/mL] |
| --- | --- |
| O=C(Nc1ccc(/C=C/C(=O)N2CC3C=C(c4ccncc4)CC3C2)cn1)c1cccnc1 (centres unmarked) [compound 9] | 0.39 |
| O=C1Nc2ncc(/C=C/C(=O)N3CC4C=C(c5ccccc5)CC4C3)cc2CN2CCNCC12 (centres unmarked) [compound 79] | < 0.22 |
| O=C1Nc2ncc(/C=C/C(=O)N3CC4C=C(c5ccncc5)CC4C3)cc2CN2CCOCC12 (centres unmarked) [compound 80] | 0.38 |
| CN1CCN2C(=O)c3cc(/C=C/C(=O)N4CC5C=C(c6ccccc6)CC5C4)cnc3NC(=O)C2C1 (centres unmarked) [compound 82] | 0.43 |
| CC(=O)N1CCN2C(=O)c3cc(/C=C/C(=O)N4CC5C=C(c6ccccc6)CC5C4)cnc3NC(=O)C2C1 (centres unmarked) [compound 83] | 0.47 |
| Cn1nccc1C1=CC2CN(C(=O)/C=C/c3cnc4c(c3)CN3CCOCC3C(=O)N4)CC2C1 (centres unmarked) [compound 85] | 1.62 |
| O=C1CC2CCCCN2Cc2cc(/C=C/C(=O)N3C[C@@H]4CC(c5ccccc5)=C[C@@H]4C3)cnc2N1 (some centres unmarked) [compound 90] | < 0.21 |

Test system: not listed separately
Assay: Cytotoxicity MTT assay (HELAM)
Format: cell-based, Human
Conditions: human, HelaM cells, read-out: HELAM (222.125) CC50
Outline: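 HelaM cells exposed 72 h at 37° C to serial dilutions, typically 25 to 0.8 μM, in 0.5% DMSO. MTT formazan dissolved in 2-propanol, absorbance at 540 nm minus 690 nm; CC50 is concentration halving viability.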

| Structure (SMILES) | CC50 at 72 h [µg/mL] |
| --- | --- |
| O=C(Nc1ccc(/C=C/C(=O)N2CC3C=C(c4ccncc4)CC3C2)cn1)c1cccnc1 (centres unmarked) [compound 9] | > 11 |
| O=C1Nc2ncc(/C=C/C(=O)N3CC4C=C(c5ccccc5)CC4C3)cc2CN2CCNCC12 (centres unmarked) [compound 79] | > 11.4 |
| O=C1Nc2ncc(/C=C/C(=O)N3CC4C=C(c5ccncc5)CC4C3)cc2CN2CCOCC12 (centres unmarked) [compound 80] | > 11.5 |
| CN1CCN2C(=O)c3cc(/C=C/C(=O)N4CC5C=C(c6ccccc6)CC5C4)cnc3NC(=O)C2C1 (centres unmarked) [compound 82] | > 12.1 |
| CC(=O)N1CCN2C(=O)c3cc(/C=C/C(=O)N4CC5C=C(c6ccccc6)CC5C4)cnc3NC(=O)C2C1 (centres unmarked) [compound 83] | > 12.9 |
| Cn1nccc1C1=CC2CN(C(=O)/C=C/c3cnc4c(c3)CN3CCOCC3C(=O)N4)CC2C1 (centres unmarked) [compound 85] | > 11.6 |
| O=C1CC2CCCCN2Cc2cc(/C=C/C(=O)N3C[C@@H]4CC(c5ccccc5)=C[C@@H]4C3)cnc2N1 (some centres unmarked) [compound 90] | 4.4 (≈ 9.39 µM) |

Test system: not listed separately
Assay: Thermodynamic solubility (pH solubility profiling)
Format: physicochemical
Conditions: aqueous buffer, thermodynamic from solid, Buffer pH 4, ambient temperature
Protocol: The pH solubility profiling was carried out at ambient temperature for a period of 4 days. A saturation solubility study was carried out in order to determine maximum solubility in a particular buffer solution. The compound was added to respective buffer solution until saturation point is reached. This was followed by shaking the flask for 4 days at ambient temperature. After 4 days, the solutions were filtered and injected on UPLC and the concentration was determined using a generic HPLC method.

| Structure (SMILES) | solubility thermodynamic at 4 days [µg/mL] |
| --- | --- |
| O=C(Nc1ccc(/C=C/C(=O)N2CC3C=C(c4ccncc4)CC3C2)cn1)c1cccnc1 (centres unmarked) [compound 9] | 120 (≈ 274 µM) |
| O=C1Nc2ncc(/C=C/C(=O)N3CC4C=C(c5ccccc5)CC4C3)cc2CN2CCNCC12 (centres unmarked) [compound 79] | 150 (≈ 329 µM) |

Same assay, conditions: aqueous buffer, thermodynamic from solid, Buffer pH 7.4, ambient temperature

| Structure (SMILES) | solubility thermodynamic at 4 days [µg/mL] |
| --- | --- |
| O=C(Nc1ccc(/C=C/C(=O)N2CC3C=C(c4ccncc4)CC3C2)cn1)c1cccnc1 (centres unmarked) [compound 9] | < 10 |
| O=C1Nc2ncc(/C=C/C(=O)N3CC4C=C(c5ccccc5)CC4C3)cc2CN2CCNCC12 (centres unmarked) [compound 79] | 10 (≈ 22 µM) |

Same assay, conditions: aqueous with cosolvent or surfactant or cyclodextrin, thermodynamic from solid, 10% HP-β-CD buffer pH 4, ambient temperature

| Structure (SMILES) | solubility thermodynamic at 4 days [µg/mL] |
| --- | --- |
| O=C(Nc1ccc(/C=C/C(=O)N2CC3C=C(c4ccncc4)CC3C2)cn1)c1cccnc1 (centres unmarked) [compound 9] | 830 (≈ 1900 µM) |
| O=C1Nc2ncc(/C=C/C(=O)N3CC4C=C(c5ccccc5)CC4C3)cc2CN2CCNCC12 (centres unmarked) [compound 79] | > 5330 |

Same assay, conditions: aqueous with cosolvent or surfactant or cyclodextrin, thermodynamic from solid, 10% HP-β-CD buffer pH 7.4, ambient temperature

| Structure (SMILES) | solubility thermodynamic at 4 days [µg/mL] |
| --- | --- |
| O=C(Nc1ccc(/C=C/C(=O)N2CC3C=C(c4ccncc4)CC3C2)cn1)c1cccnc1 (centres unmarked) [compound 9] | > 1120 |
| O=C1Nc2ncc(/C=C/C(=O)N3CC4C=C(c5ccccc5)CC4C3)cc2CN2CCNCC12 (centres unmarked) [compound 79] | > 5110 |

Same assay, conditions: aqueous with cosolvent or surfactant or cyclodextrin, thermodynamic from solid, 20% HP-β-CD buffer pH 4, ambient temperature

| Structure (SMILES) | solubility thermodynamic at 4 days [µg/mL] |
| --- | --- |
| O=C(Nc1ccc(/C=C/C(=O)N2CC3C=C(c4ccncc4)CC3C2)cn1)c1cccnc1 (centres unmarked) [compound 9] | > 5230 |
| O=C1Nc2ncc(/C=C/C(=O)N3CC4C=C(c5ccccc5)CC4C3)cc2CN2CCNCC12 (centres unmarked) [compound 79] | > 4450 |

Same assay, conditions: aqueous with cosolvent or surfactant or cyclodextrin, thermodynamic from solid, 20% HP-β-CD buffer pH 7.4, ambient temperature

| Structure (SMILES) | solubility thermodynamic at 4 days [µg/mL] |
| --- | --- |
| O=C(Nc1ccc(/C=C/C(=O)N2CC3C=C(c4ccncc4)CC3C2)cn1)c1cccnc1 (centres unmarked) [compound 9] | > 4940 |
| O=C1Nc2ncc(/C=C/C(=O)N3CC4C=C(c5ccccc5)CC4C3)cc2CN2CCNCC12 (centres unmarked) [compound 79] | > 4880 |

Same assay, conditions: pH 2, aqueous with cosolvent or surfactant or cyclodextrin, thermodynamic from solid, 20% HP-β-CD 0.01N HCl, ambient temperature

| Structure (SMILES) | solubility thermodynamic at 4 days [µg/mL] |
| --- | --- |
| O=C(Nc1ccc(/C=C/C(=O)N2CC3C=C(c4ccncc4)CC3C2)cn1)c1cccnc1 (centres unmarked) [compound 9] | > 4930 |
| O=C1Nc2ncc(/C=C/C(=O)N3CC4C=C(c5ccccc5)CC4C3)cc2CN2CCNCC12 (centres unmarked) [compound 79] | > 4490 |

Same assay, conditions: pH 2, simulated gastric fluid, thermodynamic from solid, 0.01N HCl, ambient temperature

| Structure (SMILES) | solubility thermodynamic at 4 days [µg/mL] |
| --- | --- |
| O=C(Nc1ccc(/C=C/C(=O)N2CC3C=C(c4ccncc4)CC3C2)cn1)c1cccnc1 (centres unmarked) [compound 9] | > 1250 |
| O=C1Nc2ncc(/C=C/C(=O)N3CC4C=C(c5ccccc5)CC4C3)cc2CN2CCNCC12 (centres unmarked) [compound 79] | > 1160 |

Test system: not given
Assay: not given
Conditions: not given

| Structure (SMILES) | melting point [°C] |
| --- | --- |
| O=C(Nc1ccc(/C=C/C(=O)N2CC3C=C(c4ccncc4)CC3C2)cn1)c1cccnc1 (centres unmarked) [compound 9] | 196 |
| O=C1Nc2ncc(/C=C/C(=O)N3CC4C=C(c5ccccc5)CC4C3)cc2CN2CCNCC12 (centres unmarked) [compound 79] | 191 to 216 |
| O=C1Nc2ncc(/C=C/C(=O)N3CC4C=C(c5ccncc5)CC4C3)cc2CN2CCOCC12 (centres unmarked) [compound 80] | 212 |
| CN1CCN2C(=O)c3cc(/C=C/C(=O)N4CC5C=C(c6ccccc6)CC5C4)cnc3NC(=O)C2C1 (centres unmarked) [compound 82] | > 270 |
| CC(=O)N1CCN2C(=O)c3cc(/C=C/C(=O)N4CC5C=C(c6ccccc6)CC5C4)cnc3NC(=O)C2C1 (centres unmarked) [compound 83] | 262 to 264 |
| Cn1nccc1C1=CC2CN(C(=O)/C=C/c3cnc4c(c3)CN3CCOCC3C(=O)N4)CC2C1 (centres unmarked) [compound 85] | 226 |
| O=C1CC2CCCCN2Cc2cc(/C=C/C(=O)N3C[C@@H]4CC(c5ccccc5)=C[C@@H]4C3)cnc2N1 (some centres unmarked) [compound 90] | 214.9 to 232.7 |
